Test system: rabbit heart
Experiment: Rabbit heart Langendorff, simultaneous optical mapping and epicardial electrode-grid mapping of repolarization duration
Settings: after 20 uM addition of pinacidil to the perfusate
Description: A study was performed to adapt a rabbit heart Langendorff optical mapping model^42 to add the recording of electrical EGMs to a commercially-available electrode array lab (Advisor […] catheter, Abbott Laboratories), after its use in the clinical laboratory for animal use. This involved using a UHN research mapping system in which unipolar EGMs from a 16-electrode grid were used to record cardiac signals with a proprietary mapping system (described previously as UHN Cartesian Mapping System^43) at a sampling rate of 1 kHz. This electrode array was chosen as spacing between the splines allowed recording of the fluorescence from the voltage-sensitive dye RH237. Fluorescence was recorded with a high-speed CMOS camera (Ultima-L, SciMedia, Costa Mesa, CA) at a rate of 500 frames/s. […] A derivative of the vectorcardiogram was obtained by projecting the repolarization loop along its maximum axis where the projection may be called a loop optimized rEGM (i.e., which is a type of repolarization-optimized EGM that in this case is determined using the loop method described with respect to FIG. 5C). A measurement of repolarization duration, called APD^v, was measured from the onset of QRS to baseline return of the loop rEGM. It was hypothesized that rEGM provides vector-derived integrated action potential duration (APD^v) that correlates with local repolarization assessed by optical mapping. […]

For CC(N/C(=N\C#N)Nc1ccncc1)C(C)(C)C (centres unmarked) [Pinacidil, pinacidil], the “APD (optical APD90 from fluorescence)” value (baseline APD90 151 ms) was 89 ms and the “ARI (repolarization duration from loop rEGM)” value (baseline APD^v average 142 ms) was 68 ms.

Source: patent publication US20240197236A1, “ELECTRO-ANATOMIC CARDIAC REPOLARIZATION MAPPING” (University Health Network, priority 2022, published 2024)
